According to ChEMBL document CHEMBL2086224, “The design, synthesis, and biological evaluation of potent receptor tyrosine kinase inhibitors” (Bioorg Med Chem Lett, 2012):

Columns and labels:
[1] = AUC (0 to infinity) in rat at 10 mg/kg, po; assay type: ADME, organism-based; set-up: time infinity, dose 10 mg/kg, route oral; details: plasma
[2] = Half life in rat at 10 mg/kg, po; assay type: ADME, organism-based; set-up: dose 10 mg/kg, route oral; details: in vivo
[3] = Oral bioavailability in rat at 10 mg/kg; assay type: ADME, organism-based; details: in vivo
[4] = Drug uptake in human MDA-MB-231 cells xenografted mouse tumor at 10 mg/kg; assay type: ADME, organism-based, Neoplasm; set-up: dose 10 mg/kg; details: in vivo, read-out: Drug uptake
[5] = Drug uptake in human MDA-MB-231 cells xenografted mouse tumor at 30 mg/kg; assay type: ADME, organism-based, Neoplasm; set-up: dose 30 mg/kg; details: in vivo, read-out: Drug uptake
[6] = Drug uptake in human MDA-MB-231 cells xenografted mouse tumor at 60 mg/kg; assay type: ADME, organism-based, Neoplasm; set-up: dose 60 mg/kg; details: in vivo, read-out: Drug uptake
[7] = Drug uptake in human MDA-MB-231 cells xenografted mouse tumor at 100 mg/kg; assay type: ADME, organism-based, Neoplasm; set-up: dose 100 mg/kg; details: in vivo, read-out: Drug uptake
[8] = Plasma concentration in athymic nu/nu mouse bearing human MDA-MB-231 tumor at 10 to 100 mg/kg, po administered QD for 14 days; assay type: ADME, organism-based; set-up: dose 10-100 mg/kg, route oral
[9] = Plasma concentration in athymic nu/nu mouse bearing human HT-29 tumor at 10 to 100 mg/kg, po administered QD for 14 days; assay type: ADME, organism-based; set-up: dose 10-100 mg/kg, route oral
[10] = Plasma concentration in VEGF stimulated-mouse at 1 mg/kg, po after 4 hrs; assay type: ADME, organism-based; set-up: dose 1 mg/kg, route oral
[11] = Plasma concentration in VEGF stimulated-mouse at 3 mg/kg, po after 4 hrs; assay type: ADME, organism-based; set-up: dose 3 mg/kg, route oral
[12] = Plasma concentration in VEGF stimulated-mouse at 10 mg/kg, po after 4 hrs; assay type: ADME, organism-based; set-up: dose 10 mg/kg, route oral
[13] = Plasma concentration in VEGF stimulated-mouse at 30 mg/kg, po after 4 hrs; assay type: ADME, organism-based; set-up: dose 30 mg/kg, route oral
[14] = Plasma concentration in VEGF stimulated-mouse at 60 mg/kg, po after 4 hrs; assay type: ADME, organism-based; set-up: dose 60 mg/kg, route oral
[15] = Plasma concentration in VEGF stimulated-mouse at 100 mg/kg, po after 4 hrs; assay type: ADME, organism-based; set-up: dose 100 mg/kg, route oral
Lung = test: Drug uptake in VEGF-stimulated mouse lung at 1 mg/kg, po after 4 hrs; assay type: ADME, organism-based; set-up: dose 1 mg/kg, route oral; details: in vivo, BLD = below limit of detection
[16] = Drug uptake in VEGF-stimulated mouse lung at 3 mg/kg, po after 4 hrs; assay type: ADME, organism-based; set-up: dose 3 mg/kg, route oral; details: read-out: Drug uptake
[17] = Drug uptake in VEGF-stimulated mouse lung at 10 mg/kg, po after 4 hrs; assay type: ADME, organism-based; set-up: dose 10 mg/kg, route oral; details: read-out: Drug uptake
[18] = Drug uptake in VEGF-stimulated mouse lung at 30 mg/kg, po after 4 hrs; assay type: ADME, organism-based; set-up: dose 30 mg/kg, route oral; details: read-out: Drug uptake
[19] = Drug uptake in VEGF-stimulated mouse lung at 60 mg/kg, po after 4 hrs; assay type: ADME, organism-based; set-up: dose 60 mg/kg, route oral; details: read-out: Drug uptake
[20] = Drug uptake in VEGF-stimulated mouse lung at 100 mg/kg, po after 4 hrs; assay type: ADME, organism-based; set-up: dose 100 mg/kg, route oral; details: read-out: Drug uptake
Plasma [21] = test: Plasma concentration in human MDA-MB-231 cells xenografted mouse at 1 mg/kg; assay type: ADME, organism-based; set-up: dose 1 mg/kg; details: in vivo, BLD = below limit of detection
Plasma [22] = test: Plasma concentration in human MDA-MB-231 cells xenografted mouse at 3 mg/kg; assay type: ADME, organism-based; set-up: dose 3 mg/kg; details: in vivo
Plasma [23] = test: Plasma concentration in human MDA-MB-231 cells xenografted mouse at 10 mg/kg; assay type: ADME, organism-based; set-up: dose 10 mg/kg; details: in vivo
Plasma [24] = test: Plasma concentration in human MDA-MB-231 cells xenografted mouse at 30 mg/kg; assay type: ADME, organism-based; set-up: dose 30 mg/kg; details: in vivo
Plasma [25] = test: Plasma concentration in human MDA-MB-231 cells xenografted mouse at 60 mg/kg; assay type: ADME, organism-based; set-up: dose 60 mg/kg; details: in vivo
Plasma [26] = test: Plasma concentration in human MDA-MB-231 cells xenografted mouse at 100 mg/kg; assay type: ADME, organism-based; set-up: dose 100 mg/kg; details: in vivo
[27] = Drug uptake in human MDA-MB-231 cells xenografted mouse tumor at 1 mg/kg; assay type: ADME, organism-based, Neoplasm; set-up: dose 1 mg/kg; details: in vivo, BLD = below limit of detection
[28] = Drug uptake in human MDA-MB-231 cells xenografted mouse tumor at 3 mg/kg; assay type: ADME, organism-based, Neoplasm; set-up: dose 3 mg/kg; details: in vivo, BLD = below limit of detection
[29] = Permeability across MDCK cells; assay type: ADME, cell-based, Canis lupus familiaris; details: dog, read-out: permeability
[30] = Clearance in rat; assay type: ADME, organism-based; details: in vivo
[31] = Oral bioavailability in rat; assay type: ADME, organism-based; details: in vivo

## CCN1CCC(Nc2ccc3c(c2)C(=C(c2cccc(F)c2)c2ncc[nH]2)C(=O)N3)CC1 (mixture of isomers)
[1]
  AUC(0-inf): 1.12 µM·h
[2]
  half-life: 5.4 h
[3]
  bioavailability: 15%

## CCN1CCC(Nc2ccc3c(c2)C(=C(c2cccc(F)c2)c2ncc(C)[nH]2)C(=O)N3)CC1 (mixture of isomers)
[1]
  AUC(0-inf): 1.9 µM·h
[2]
  half-life: 4.6 h
[3]
  bioavailability: 20%

## CCN1CCC(Nc2ccc3c(c2)C(=C(c2ccc(Cl)cc2)c2ncc[nH]2)C(=O)N3)CC1 (mixture of isomers)
[4]
  concentration: 340 nM
[5]
  concentration: 1400 nM
[6]
  concentration: 3600 nM
[7]
  concentration: 8800 nM
[8]
  concentration at 336 h: 1000 nM
[9]
  concentration at 336 h: 1000 nM
[1]
  AUC(0-inf): 5.04 µM·h
[2]
  half-life: 10.7 h
[3]
  bioavailability: 63%
[10]
  concentration at 4 h: 4 nM
[11]
  concentration at 4 h: 10 nM
[12]
  concentration at 4 h: 20 nM
[13]
  concentration at 4 h: 10 nM
[14]
  concentration at 4 h: 10 nM
[15]
  concentration at 4 h: 620 nM
Lung
  Drug uptake: BLD
[16]
  concentration at 4 h: 70 nM
[17]
  concentration at 4 h: 280 nM
[18]
  concentration at 4 h: 470 nM
[19]
  concentration at 4 h: 810 nM
[20]
  concentration at 4 h: 3550 nM
Plasma [21]
  Cp: BLD
Plasma [22]
  concentration: 10 nM
Plasma [23]
  concentration: 40 nM
Plasma [24]
  concentration: 200 nM
Plasma [25]
  concentration: 260 nM
Plasma [26]
  concentration: 800 nM
[27]
  Drug uptake: BLD
[28]
  Drug uptake: BLD
[29]
  Papp: 6.8 ×10⁻⁶ cm/s

## CCN1CCC(Nc2ccc3c(c2)C(=C(c2ccc(OC)cc2)c2nc4ccccc4[nH]2)C(=O)N3)CC1 (mixture of isomers)
[1]
  AUC(0-inf): 0.33 µM·h
[2]
  half-life: 7.5 h
[3]
  bioavailability: 27%

## CCN1CCC(Nc2ccc3c(c2)C(=C(c2cc(F)cc(F)c2)c2nc4ccccc4[nH]2)C(=O)N3)CC1 (mixture of isomers)
[1]
  AUC(0-inf): 3.14 µM·h
[2]
  half-life: 3.8 h
[3]
  bioavailability: 72%

## CCN1CCC(Nc2ccc3c(c2)C(=C(c2ccccc2)c2ncc[nH]2)C(=O)N3)CC1 (mixture of isomers)
[1]
  AUC(0-inf): 1.5 µM·h
[2]
  half-life: 11.6 h
[3]
  bioavailability: 16%

## CCN1CCC(Nc2ccc3c(c2)C(=C(c2cc(F)cc(F)c2)c2nc(C)c[nH]2)C(=O)N3)CC1 (mixture of isomers)
[1]
  AUC(0-inf): 5.19 µM·h
[2]
  half-life: 7.2 h
[3]
  bioavailability: 59%

## CCN1CCC(Nc2ccc3c(c2)C(=C(c2nc(C)c[nH]2)c2ccccc2F)C(=O)N3)CC1 (mixture of isomers)
[1]
  AUC(0-inf): 1.03 µM·h
[2]
  half-life: 2.3 h
[3]
  bioavailability: 25%

## CCN1CCC(Nc2ccc3c(c2)C(=C(c2ccccc2)c2nc4cc(OC)ccc4[nH]2)C(=O)N3)CC1 (mixture of isomers)
[30]
  clearance: 108 mL/min/kg
[31]
  bioavailability: 19%

## CCN1CCC(Nc2ccc3c(c2)C(=C(c2ccc(C)cc2)c2nc4ccccc4[nH]2)C(=O)N3)CC1 (mixture of isomers)
[1]
  AUC(0-inf): 2.36 µM·h
[2]
  half-life: 4.6 h
[3]
  bioavailability: 55%

## CCN1CCC(Nc2ccc3c(c2)C(=C(c2cccc(F)c2)c2nc4ccccc4[nH]2)C(=O)N3)CC1 (mixture of isomers)
[1]
  AUC(0-inf): 1.99 µM·h
[2]
  half-life: 4.4 h
[3]
  bioavailability: 63%

## CCN1CCC(Nc2ccc3c(c2)C(=C(c2ccccc2)c2nc4ccccc4[nH]2)C(=O)N3)CC1 (mixture of isomers)
[1]
  AUC(0-inf): 1.44 µM·h
[2]
  half-life: 5.7 h
[3]
  bioavailability: 37%
